Organism: Rattus norvegicus
Assay: Open TG-GATES - Regimen: Single
Type: toxicity, organism-based, Sprague-Dawley
Parameters: regimen Single, gender Male, age 6 weeks
Conditions: in vivo, po, 0 mg/kg, route gavage, dose level Control; for APTT / Bas / Eos / Fbg / Hb / Ht / Lym / MCH / MCHC / MCV / Mono / Neu / PT / Plat / RBC / Ret / WBC: tissue Blood; for KIDNEY_L / KIDNEY_R / KIDNEY_TOTAL: tissue Kidney; for LIVER: tissue Liver; for A/G / ALP / ALT / AST / BUN / CRE / Ca / Cl / DBIL / GLC / IP / K / LDH / Na / PL / RALB / TBIL / TC / TG / TP / gamma-GTP: tissue Plasma

`CN(C)[C@@H]1C(O)=C(C(N)=O)C(=O)[C@@]2(O)C(O)=C3C(=O)c4c(O)cccc4[C@@](C)(O)[C@H]3C[C@@H]12` [TETRACYCLINE] was tested, and the TERMINAL_BW (3 h) was 187 g, the APTT (3 h) was 16.4 s and the Bas (3 h) was 0%. The Eos (3 h) was 0.6%, the Fbg (3 h) was 206.2 mg/dL and the Hb (3 h) was 13.1 g/dL. For the same compound, the Ht (3 h) was 39.4%, the Lym (3 h) was 78.4% and the MCH (3 h) was 22 pg. The MCHC (3 h) was 33.1%, the MCV (3 h) was 66.3 fL and the Mono (3 h) was 8.6%. The Neu (3 h) was 12.8%, the PT (3 h) was 12.1 s and the Plat (3 h) was 105.5 x10_4/uL. For the same compound, the RBC (3 h) was 595.2 x10_4/ul, the Ret (3 h) was 11% and the WBC (3 h) was 95.1 x10_2/uL. For the same compound, the KIDNEY_L (3 h) was 0.9 g, the KIDNEY_R (3 h) was 0.9 g and the KIDNEY_TOTAL (3 h) was 1.8 g. It also gave an LIVER (3 h) of 9 g, an A/G (3 h) of 2.2 and an ALP (3 h) of 813 IU/L. For the same compound, the ALT (3 h) was 35.8 IU/L, the AST (3 h) was 70.8 IU/L and the BUN (3 h) was 12.6 mg/dL. The CRE (3 h) was 0.5 mg/dL, the Ca (3 h) was 11.1 mg/dL and the Cl (3 h) was 103.6 meq/L. The DBIL (3 h) was 0.02 mg/dL, the GLC (3 h) was 187.8 mg/dL and the IP (3 h) was 10.2 mg/dL. For the same compound, the K (3 h) was 5.2 meq/L, the LDH (3 h) was 87.6 IU/L and the Na (3 h) was 137.6 meq/L. It also gave a PL (3 h) of 143.2 mg/dL, an RALB (3 h) of 3.7 g/dL and a TBIL (3 h) of 0.4 mg/dL. For the same compound, the TC (3 h) was 84 mg/dL, the TG (3 h) was 42.4 mg/dL and the TP (3 h) was 5.4 g/dL. For the same compound, the gamma-GTP (3 h) was 1.4 IU/L, the TERMINAL_BW (6 h) was 181.3 g and the APTT (6 h) was 16.7 s. The Bas (6 h) was 0%, the Eos (6 h) was 0.8% and the Fbg (6 h) was 200.2 mg/dL. For the same compound, the Hb (6 h) was 13.1 g/dL, the Ht (6 h) was 39.1% and the Lym (6 h) was 81.6%. For the same compound, the MCH (6 h) was 22 pg, the MCHC (6 h) was 33.4% and the MCV (6 h) was 65.9 fL. It also gave a Mono (6 h) of 5.2%, a Neu (6 h) of 13% and a PT (6 h) of 12.3 s. It also gave a Plat (6 h) of 101.8 x10_4/uL, an RBC (6 h) of 593.8 x10_4/ul and a Ret (6 h) of 10.7%. For the same compound, the WBC (6 h) was 118.1 x10_2/uL, the KIDNEY_L (6 h) was 0.8 g and the KIDNEY_R (6 h) was 0.8 g. It also gave a KIDNEY_TOTAL (6 h) of 1.7 g, an LIVER (6 h) of 8.3 g and an A/G (6 h) of 2.2. It also gave an ALP (6 h) of 900.4 IU/L, an ALT (6 h) of 36.2 IU/L and an AST (6 h) of 68.8 IU/L. For the same compound, the BUN (6 h) was 9 mg/dL, the CRE (6 h) was 0.4 mg/dL and the Ca (6 h) was 10.6 mg/dL. It also gave a Cl (6 h) of 105.2 meq/L, a DBIL (6 h) of 0.018 mg/dL and a GLC (6 h) of 180 mg/dL. It also gave an IP (6 h) of 10.5 mg/dL, a K (6 h) of 5.2 meq/L and an LDH (6 h) of 77.6 IU/L. For the same compound, the Na (6 h) was 136.4 meq/L, the PL (6 h) was 130.4 mg/dL and the RALB (6 h) was 3.7 g/dL. For the same compound, the TBIL (6 h) was 0.3 mg/dL, the TC (6 h) was 76 mg/dL and the TG (6 h) was 36 mg/dL. For the same compound, the TP (6 h) was 5.3 g/dL, the gamma-GTP (6 h) was 1.2 IU/L and the TERMINAL_BW (9 h) was 179.4 g. It also gave an APTT (9 h) of 16.9 s, a Bas (9 h) of 0% and an Eos (9 h) of 0.6%. It also gave a Fbg (9 h) of 211.6 mg/dL, a Hb (9 h) of 13.3 g/dL and a Ht (9 h) of 40.3%. It also gave a Lym (9 h) of 78%, an MCH (9 h) of 21.7 pg and an MCHC (9 h) of 33%. It also gave an MCV (9 h) of 65.7 fL, a Mono (9 h) of 6.2% and a Neu (9 h) of 15.4%. The PT (9 h) was 12.8 s, the Plat (9 h) was 98.9 x10_4/uL and the RBC (9 h) was 613.2 x10_4/ul. For the same compound, the Ret (9 h) was 9.1%, the WBC (9 h) was 72 x10_2/uL and the KIDNEY_L (9 h) was 0.9 g. The KIDNEY_R (9 h) was 0.9 g, the KIDNEY_TOTAL (9 h) was 1.8 g and the LIVER (9 h) was 7.5 g. For the same compound, the A/G (9 h) was 2.3, the ALP (9 h) was 844.2 IU/L and the ALT (9 h) was 32.6 IU/L. It also gave an AST (9 h) of 64.2 IU/L, a BUN (9 h) of 10.6 mg/dL and a CRE (9 h) of 0.4 mg/dL. The Ca (9 h) was 10.4 mg/dL, the Cl (9 h) was 106.2 meq/L and the DBIL (9 h) was 0.024 mg/dL. For the same compound, the GLC (9 h) was 176.4 mg/dL, the IP (9 h) was 10.6 mg/dL and the K (9 h) was 5.3 meq/L. It also gave an LDH (9 h) of 81.2 IU/L, a Na (9 h) of 138.8 meq/L and a PL (9 h) of 123.6 mg/dL. It also gave an RALB (9 h) of 3.8 g/dL, a TBIL (9 h) of 0.3 mg/dL and a TC (9 h) of 71.2 mg/dL. For the same compound, the TG (9 h) was 23.6 mg/dL, the TP (9 h) was 5.5 g/dL and the gamma-GTP (9 h) was 1.4 IU/L. The TERMINAL_BW (24 h) was 200.1 g, the APTT (24 h) was 16.6 s and the Bas (24 h) was 0%. It also gave an Eos (24 h) of 0.8%, a Fbg (24 h) of 205.2 mg/dL and a Hb (24 h) of 13.2 g/dL. For the same compound, the Ht (24 h) was 39.7%, the Lym (24 h) was 76.6% and the MCH (24 h) was 22.1 pg. For the same compound, the MCHC (24 h) was 33.2%, the MCV (24 h) was 66.7 fL and the Mono (24 h) was 8.2%. For the same compound, the Neu (24 h) was 14.8%, the PT (24 h) was 11.9 s and the Plat (24 h) was 112.5 x10_4/uL. The RBC (24 h) was 596.4 x10_4/ul, the Ret (24 h) was 9.8% and the WBC (24 h) was 81.9 x10_2/uL. The KIDNEY_L (24 h) was 0.9 g, the KIDNEY_R (24 h) was 0.9 g and the KIDNEY_TOTAL (24 h) was 1.8 g. For the same compound, the LIVER (24 h) was 10.2 g, the A/G (24 h) was 2.3 and the ALP (24 h) was 1007 IU/L. The ALT (24 h) was 45.4 IU/L, the AST (24 h) was 76.6 IU/L and the BUN (24 h) was 17.4 mg/dL. The CRE (24 h) was 0.5 mg/dL, the Ca (24 h) was 11.1 mg/dL and the Cl (24 h) was 105.2 meq/L. The DBIL (24 h) was 0.008 mg/dL, the GLC (24 h) was 188.6 mg/dL and the IP (24 h) was 9 mg/dL. For the same compound, the K (24 h) was 4.9 meq/L, the LDH (24 h) was 87.6 IU/L and the Na (24 h) was 140.2 meq/L. For the same compound, the PL (24 h) was 155 mg/dL, the RALB (24 h) was 3.9 g/dL and the TBIL (24 h) was 0.4 mg/dL. The TC (24 h) was 84.2 mg/dL, the TG (24 h) was 69.2 mg/dL and the TP (24 h) was 5.7 g/dL. The gamma-GTP (24 h) was 0.8 IU/L.
